Measured values taken from ChEMBL document CHEMBL1201862, “PubChem BioAssay data set” (2004).
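Grown in 96-well plates, cells were treated for 48 hours with each compound at five concentrations. Insufficient inhibition: endpoint recorded as highest concentration tested. GI50 is the concentration that inhibits growth by half.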 Active and inactive are the calls of the source. Rule as the data show it: active = GI50 up to about 1.1 µM and inactive = higher.

Legend:
Assay in all cases: NCI anticancer screen, dose series, 48 h
HCT-15 = system: HCT-15
MOLT-4 = system: MOLT-4
CAKI-1 = system: CAKI-1
HCT-116 = system: HCT-116
786-0 = system: 786-0
LOX IMVI = system: LOX IMVI
NCI-H460 = system: NCI-H460
U-251 = system: U-251
CCRF-CEM = system: CCRF-CEM
T47D = system: T47D
UACC-62 = system: UACC-62
Hs-578T = system: Hs-578T
SN12C = system: SN12C
HOP-92 = system: HOP-92
SR = system: SR
OVCAR-5 = system: OVCAR-5
NCI-H226 = system: NCI-H226
SK-MEL-28 = system: SK-MEL-28
SF-268 = system: SF-268

Row | Compound | GI50 (HCT-15) [µM] | GI50 (MOLT-4) | GI50 (CAKI-1) | GI50 (HCT-116) | GI50 (786-0) | GI50 (LOX IMVI) | GI50 (NCI-H460) | GI50 (U-251) | GI50 (CCRF-CEM) | GI50 (T47D) | GI50 (UACC-62) | GI50 (Hs-578T) | GI50 (SN12C) | GI50 (HOP-92) | GI50 (SR) | GI50 (OVCAR-5) | GI50 (NCI-H226) | GI50 (SK-MEL-28) | GI50 (SF-268)
1 | COCn1c(C)c(C)c2c(=O)oc(N(C)C)nc21 | > 100 | > 100 µM (inactive) | 13.6 µM (inactive) | > 100 µM (inactive) | > 100 µM (inactive) | > 100 µM (inactive) | > 100 µM (inactive) | > 100 µM (inactive) | > 100 µM (inactive) | > 100 µM (inactive) | > 100 µM (inactive) | > 100 µM (inactive) | > 100 µM (inactive) | > 100 µM (inactive) | > 100 µM (inactive) | > 100 µM (inactive) | > 100 µM (inactive) | > 100 µM (inactive) | 
2 | Cc1ccc([N+](=O)[O-])cc1S(=O)(=O)Nc1ccc(C2=NOC(c3cccs3)C2)cc1 (stereo not given) | 4.75 | 4.04 µM (inactive) | 18.7 µM (inactive) | 11.1 µM (inactive) | 17.5 µM (inactive) | 11 µM (inactive) | 9.66 µM (inactive) |  | 8.93 µM (inactive) | 12.8 µM (inactive) | 3.78 µM (inactive) | 20 µM (inactive) | 17.9 µM (inactive) | 19.9 µM (inactive) | 2.05 µM (inactive) | 32.3 µM (inactive) | 25.1 µM (inactive) | 20.1 µM (inactive) | 18.4 µM (inactive)
3 | C/C(=C\CNc1ncnc2c1ncn2CCC(=O)OC(C)(C)C)CO |  | > 100 µM (inactive) | > 100 µM (inactive) | > 100 µM (inactive) | > 100 µM (inactive) | > 100 µM (inactive) | > 100 µM (inactive) |  | > 100 µM (inactive) | > 100 µM (inactive) | > 100 µM (inactive) | > 100 µM (inactive) | > 100 µM (inactive) | > 100 µM (inactive) | > 100 µM (inactive) | > 100 µM (inactive) | > 100 µM (inactive) | > 100 µM (inactive) | > 100 µM (inactive)
4 | O=C1CC2(CCC(O)(c3cccs3)C(C(=O)c3cccs3)C2)C(=O)c2ccccc2N1 (stereo not given) | 28.5 | 29 µM (inactive) | > 100 µM (inactive) | 53 µM (inactive) |  | 89.3 µM (inactive) | 16.5 µM (inactive) | 90.4 µM (inactive) | 22.5 µM (inactive) | 18.2 µM (inactive) | > 100 µM (inactive) | > 100 µM (inactive) | > 100 µM (inactive) | > 100 µM (inactive) | > 100 µM (inactive) | > 100 µM (inactive) | > 100 µM (inactive) |  | > 100 µM (inactive)
5 | COc1cc([C@@H]2c3cc(O)c(OC)cc3C=C(C(N)=O)[C@H]2C(N)=O)ccc1O | > 100 | > 100 µM (inactive) | > 100 µM (inactive) | > 100 µM (inactive) | > 100 µM (inactive) | > 100 µM (inactive) | > 100 µM (inactive) | > 100 µM (inactive) | > 100 µM (inactive) | > 100 µM (inactive) |  | > 100 µM (inactive) | > 100 µM (inactive) | > 100 µM (inactive) | > 100 µM (inactive) | > 100 µM (inactive) | > 100 µM (inactive) | > 100 µM (inactive) | > 100 µM (inactive)
6 | N/N=C(\C(=O)Nc1ccc(Cl)cc1Cl)C(c1cnc2ccccc2n1)[N+](=O)[O-] (stereo not given) | > 100 |  | > 100 µM (inactive) | 26.7 µM (inactive) | > 100 µM (inactive) | > 100 µM (inactive) | > 100 µM (inactive) | > 100 µM (inactive) | > 100 µM (inactive) | > 100 µM (inactive) | > 100 µM (inactive) | > 100 µM (inactive) | > 100 µM (inactive) | > 100 µM (inactive) | > 10 µM (inactive) | > 100 µM (inactive) | > 100 µM (inactive) | > 100 µM (inactive) | > 100 µM (inactive)
7 | CC1=NN(c2nc(N)nc(C(C)Sc3cc(Cl)c(C)cc3S(N)(=O)=O)n2)C(C)(C)C1 (stereo not given) | > 10 | > 10 µM (inactive) | > 10 µM (inactive) | > 10 µM (inactive) | > 10 µM (inactive) | > 10 µM (inactive) | > 10 µM (inactive) | > 10 µM (inactive) | > 10 µM (inactive) | > 10 µM (inactive) |  | > 10 µM (inactive) | > 10 µM (inactive) | > 10 µM (inactive) | > 10 µM (inactive) | > 10 µM (inactive) | > 10 µM (inactive) | > 10 µM (inactive) | > 10 µM (inactive)
8 | CC(=O)O/C=C\OC1CCCC1 | > 100 | > 100 µM (inactive) | > 100 µM (inactive) |  | > 100 µM (inactive) | > 100 µM (inactive) | > 100 µM (inactive) | > 100 µM (inactive) | 21.9 µM (inactive) | > 100 µM (inactive) | > 100 µM (inactive) | > 100 µM (inactive) |  | > 100 µM (inactive) | > 100 µM (inactive) |  | > 100 µM (inactive) | > 100 µM (inactive) | > 100 µM (inactive)
